According to the METLIN SMRT retention time set (Domingo-Almenara et al. 2019):

assay: gradient 5% acetonitrile 3 min, to 50% in 2 min, to 85% in 15 min, held 3 min, 100 µL/min; details: column: Zorbax Extend-C18 2.1 x 50 mm; eluents: water / acetonitrile, 0.1% formic acid
How it was run: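 Retention time was recorded from adduct peaks, which were picked computationally and each inspected manually. Pure standards ran in mixtures of ~100 molecules on HPLC coupled to a quadrupole time-of-flight mass spectrometer, in positive and negative ionization mode, through a Zorbax Extend-C18 column (2.1 × 50 mm, 1.8 μm) at 100 μL/min. Eluents were water and acetonitrile, each with 0.1% formic acid.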

Row | SMILES | RP-LC retention time
1 | O=C(Cn1nc2c(Oc3ccc(Cl)cc3)nccn2c1=O)Nc1ccc(F)c(Cl)c1 | 990 s
2 | Cc1ccc(C)c(NS(=O)(=O)c2cc(-c3[nH]ncc3C(=O)N3CCCCC3)oc2C)c1 | 799 s
3 | CCCCOc1ccc(CNC(=O)C2CCCN(C(=O)c3[nH]c(C)c(C(=O)OC)c3C)C2)cc1 (centres undefined) | 930 s
4 | Cc1ccc(-c2noc(Cc3nnc(-c4cccc(Br)c4)o3)n2)cc1C | 1230 s
5 | CC1CCN(c2cc(-c3noc(C(=O)N4CCN(C5CCCCC5)CC4)n3)ccn2)CC1 | 647 s
6 | O=C(Nc1ccc(N2CCOCC2)cc1)c1ccc2nc(-c3ccccc3)cn2c1 | 646 s
7 | Cc1ccc(C(=O)N2CCOc3ccc(NC(=O)C4CC4)cc3C2)s1 | 790 s
8 | CCS(=O)(=O)N1CC(=O)N(c2ccc(C)cc2)C(C)(C(=O)NC2CCCCCCC2)C1 (centres undefined) | 979 s
9 | CCc1nc(-c2ccc(-c3noc(CNS(=O)(=O)c4ccccc4)n3)cc2)cs1 | 1020 s
10 | Cc1cccc(C2CC(=O)c3c(C)nc(N4CCN(CCO)CC4)nc3C2)c1 (centres undefined) | 665 s
11 | CSc1cccc(NC(=O)C2CCCN(C(=O)c3ccc(Cl)cc3)C2)c1 (centres undefined) | 973 s
12 | Cc1cccc(-n2cc(C(=O)OCC(=O)OC(C)(C)C)c3ccccc3c2=O)c1 | 1210 s
13 | Cc1ccc(-c2nc(NC(=O)CCc3ccccc3)sc2C)cc1 | 1150 s
14 | CCC(=O)N1CC(=O)Nc2ccc(Br)cc2C1c1ccccc1 (centres undefined) | 749 s
15 | O=C(COc1ccc(F)cc1)Nc1ccc2c(c1)N(C(=O)c1ccco1)CCC2 | 712 s
16 | CCc1nn2c(CNC(=O)c3ccc(F)cc3)c(-c3ccccc3)nc2s1 | 914 s
17 | CCCc1ccc(S(=O)(=O)N2CCC3(CC2)CCC(O)(CN2CCCC2)CC3)cc1 | 735 s
18 | Cc1cc2nn(CC(=O)N3CCC(C)CC3)c(=O)n2c(-c2cccc(Cl)c2)n1 | 894 s
19 | Brc1ccc(Nc2c(-c3ccc4c(c3)OCO4)nc3cnccn23)cc1 | 921 s
20 | Cc1ccc(NC(=O)N2CCC(n3c(-c4ccco4)nc4cccnc43)C2)cc1F (centres undefined) | 815 s
21 | COc1ccc(-c2noc(C3CCCN3C(=O)c3ccoc3)n2)cc1 (centres undefined) | 835 s
22 | Cc1ccccc1NC(=O)CSc1ccc(-n2nccc2C)nn1 | 869 s

Row | SMILES | RP-LC retention time
23 | C=CCNC(=O)C(=O)Nc1ccc2c(c1)N(C(=O)C(C)C)CCC2 | 746 s
24 | CCOc1ccc(N2CC(c3nc(-c4ccc(OC)c(OC)c4)no3)CC2=O)cc1 (centres undefined) | 882 s
25 | Cc1c(S(=O)(=O)Nc2ccccc2)c(C)n(C)c1-c1nnc(C2CCC2)o1 | 870 s
26 | COc1ccc(N2CC(NC(=O)C(=O)c3c(C)[nH]c4ccccc34)CC2=O)cc1 (centres undefined) | 707 s
27 | CSc1nc2ccc3nc(NC(=O)c4ccc([N+](=O)[O-])o4)sc3c2s1 | 930 s
28 | O=C(NCc1cccc(C(F)(F)F)c1)c1c[nH]c2ncccc12 | 760 s
29 | COc1ccccc1CNC(=O)c1cn2c(n1)CCCC2 | 589 s
30 | CCOC(=O)COc1cc(-c2ccccc2)nc2ccc(NC(=O)COc3ccc(F)cc3)cc12 | 868 s
31 | O=C(Cn1c(=O)c(=O)n(Cc2ccncc2)c2ncccc21)NCCc1ccc(Cl)cc1 | 633 s
32 | CCOC(=O)c1ccc(Nc2c(-c3cccc(Cl)c3)nc3cnccn23)cc1 | 978 s
33 | COC(=O)C1=CN(c2cccc(Cl)c2)c2ccccc2S1(=O)=O | 879 s
34 | COc1ccc(-c2c(C)noc2NC(C)=O)cc1S(=O)(=O)N1CCCC1 | 673 s
35 | COc1ccc(S(=O)(=O)N2CCC(c3noc(-c4cccnc4)n3)C2)cc1 (centres undefined) | 793 s
36 | O=C(Nc1ccc2c(c1)CN(C(=O)Cn1c(=O)oc3ccccc31)CCO2)C1CC1 | 767 s
37 | O=C(O)c1cn(-c2ccc(F)c(F)c2)nn1 | 664 s
38 | CN(C)S(=O)(=O)c1ccc2c(c1)N(CC(=O)NCCCN1CCCC1)C(=O)C1CCCCN21 (centres undefined) | 614 s
39 | Cc1ccc2[nH]c(C(=O)N3CCOCC3)cc2c1 | 582 s
40 | CCCNC(=O)C1CCN(c2ccc(SCC(=O)Nc3ccc4c(c3)OCCO4)nn2)CC1 | 626 s
41 | Cc1ccc(-n2cc(C(=O)OCC(=O)OC(C)(C)C)c3ccccc3c2=O)cc1 | 1210 s
42 | CCOc1ccc(S(=O)(=O)Nc2ccc(-c3cn4ccc(C)nc4n3)cc2)cc1 | 661 s
43 | COc1ncc(C(=O)NCc2ccc(N(C)C)cc2)cn1 | 564 s
44 | COc1ccc(NC(=O)C2CCCN(c3cnc4nc(C)c(C)nc4c3)C2)c(C)c1 (centres undefined) | 712 s
